Results reported in US20250144099A1, “INK4 TUMOR SUPPRESSOR PROTEINS MEDIATE RESISTANCE TO CDK4/6 KINASE INHIBITORS” (MEMORIAL SLOAN-KETTERING CANCER CENTER, priority 2021, published 2025).
“Also recorded” adds a separate entry of the source. Values belong to the compound of their own block, whether it stands above or below them.

Key:
CDK6 [1] = target: T1, CDK6 (Homo sapiens, UniProt Q00534); assay: IP-in vitro kinase assay (ADP-Glo, Rb substrate) of immunoprecipitated CDK6; format: biochemical; set-up: Upregulation of wild-type CDK6 expression as a recurrent mechanism; endogenous in cells; host or cells: MCF-7 FAT1 CRISPR knockout (CDK6-high) cells; settings: IP-CDK6 from resistant CDK6-high (FAT1 loss) MCF7 cells, pre-treatment with 100 nM abemaciclib
Method: IP-in vitro kinase assay. […] Lysates were collected as described above. […] of cell lysates were incubated with […] CDK4 (# sc-23896, Santa Cruz Biotechnology) or CDK6 (# sc-177-G, Santa Cruz Biotechnology) antibody at 4° C. overnight. 20 μl of ChIP-grade magnetic beads (Thermo Fisher Scientific) was added into each IP tube and incubated for 2 hours. IP samples were washed 2 times with kinase lysis buffer and 2 times with kinase reaction buffer (40 mM Tris-HCl [pH 7.5], 20 mM MgCl2, 0.1 mg/ml BSA, from SignalChem, #K03-09, with […] DTT adding freshly). 100 μl of kinase reaction buffer with 0.5 μg of recombinant human Rb1 protein and 100 μM of ATP was added into each tube.
Target sequence in this assay (Q00534 whole entry): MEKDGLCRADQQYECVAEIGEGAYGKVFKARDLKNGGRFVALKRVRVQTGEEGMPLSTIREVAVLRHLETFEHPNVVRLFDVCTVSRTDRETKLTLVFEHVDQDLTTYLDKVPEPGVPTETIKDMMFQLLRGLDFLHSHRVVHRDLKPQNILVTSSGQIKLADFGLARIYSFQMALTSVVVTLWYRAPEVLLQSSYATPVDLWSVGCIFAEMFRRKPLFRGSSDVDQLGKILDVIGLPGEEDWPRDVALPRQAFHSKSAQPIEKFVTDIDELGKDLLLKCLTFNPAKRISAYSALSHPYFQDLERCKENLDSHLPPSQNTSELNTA
Target sequence in this assay (P30281 whole entry partner): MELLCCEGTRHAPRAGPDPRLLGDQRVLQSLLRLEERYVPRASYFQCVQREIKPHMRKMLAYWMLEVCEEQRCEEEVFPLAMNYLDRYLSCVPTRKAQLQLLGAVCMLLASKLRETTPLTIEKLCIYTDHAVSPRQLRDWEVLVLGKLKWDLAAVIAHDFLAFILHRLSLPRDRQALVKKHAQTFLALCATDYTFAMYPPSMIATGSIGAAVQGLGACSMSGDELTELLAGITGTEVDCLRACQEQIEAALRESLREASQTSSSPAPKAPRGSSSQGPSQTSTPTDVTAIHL

[2] = tested on: CDK6 expression in PTEN knockdown cells; assay: Immunoblotting of CDK6 expression in PTEN knockdown cells; format: cell-based, human; set-up: dose or concentration left out as unconfirmed; settings: MK-2206 as printed
Method: (§1) Cell lysates were collected in RIPA buffer (Thermo Fisher Scientific) supplemented with protease and phosphatase inhibitors (Pierce). Protein concentration was quantified by using the BCA kit (Fisher Scientific). […] of protein lysates were loaded onto 4-12% SDS-PAGE gels (Invitrogen) for electrophoresis and transferred onto nitrocellular membranes. Blots were blocked with Intercept™ (TBS) Blocking Buffer (LI-COR Bioscience #927-60001) and incubated with primary antibody at 4° C. overnight. Secondary antibodies conjugated with fluorescence (LI-COR Bioscience #926-68071 and #926-32210) were incubated for 1 h at room temperature and blots were scanned by Odyssey Clx Imaging System from LI-COR Bioscience.

CDK6 [3] = target: T1, CDK6; assay: Immunoblotting of CDK6 degradation in cells; format: cell-based; set-up: MCF7 cells that lost FAT1 expression and with high CDK6 expression; endogenous in cells; host or cells: MCF-7 FAT1 loss cells (also MCF-7 parental)
Method: as §1
Target sequence in this assay (Q00534 whole entry): as the sequence (Q00534 whole entry) above

CDK4 = target: T2, CDK4 (Homo sapiens, UniProt P11802); assay: Immunoblotting of CDK4 degradation in cells; format: cell-based
T2 construct: CDK4 and CDK6 were immunoprecipitated from isogenic drug sensitive (MCF7 parental cells with low CDK6); endogenous in cells; host or cells: MCF-7 parental and MCF-7 FAT1 CRISPR knockout (CDK6-high) cells
Method: as §1

MCF-7 parental cells = assay: Cell viability assay (Resazurin); format: cell-based, human; settings: day 7
Method: (§2) Cell viability was measured by Resazurin (R&D Systems, Minneapolis, MN, USA) as described previously (51). Briefly, 1,500 cells were seeded in a 96-well plate and allowed to recover overnight. Cells were treated with drugs at day 0. Resazurin was added to the cells 4 hours prior to the measurements on day 3, day 5 and day 7. Fluorescent intensity was measured using a microplate reader (SpectraMax M5, Molecular Devices, Sunnyvale, CA, USA). IC50 was calculated by GraphPad Prism 7.0 using a sigmoidal regression model.

[4] = tested on: MCF-7 CDK6-high cells (FAT1 loss); assay: Cell viability assay (Resazurin); format: cell-based, human; settings: day 7
Method: as §2

Pharmacokinetic study = format: in vivo, C57BL/6 male mice
Method: Pharmacokinetic study. C57BL/6 male mice were dosed with BSJ-05-017 solution formulation (i.p., 5/95 DMSO/10% captisol, dose 25 mg/kg) and BSJ-03-096 solution formulation (p.o., 5/95 DMSO/10%, dose 10 mg/kg). Blood samples were collected at 0.08, 0.25, 0.5, 1, 2, 4, 6, 8 and 24 hr. The blood samples were collected from sets of three mice at each time point in microcentrifuge tubes containing K2EDTA as an anticoagulant. Plasma samples were separated by centrifugation and stored below −70° C. until bioanalysis. All samples were processed for analysis by precipitation using acetonitrile and analyzed with a partially validated LC/MS/MS method (LLOQ −1.22 ng/mL for IV and PO, LLOQ −5.02 ng/mL for IP). Pharmacokinetic parameters were calculated using the noncompartmental analysis tool of WinNonlin Enterprise software (Version 6.3).

[5] = tested on: patient-derived xenograft models; assay: Patient-derived xenograft tumor growth; format: in vivo, mice; settings: two patient-derived xenograft models; ribociclib at clinical equivalent dose
MOLT4 cells = assay: Global quantitative mass spectrometry proteomics; format: cell-based, human; settings: 250 nM, 5 h
Method: Molt4 cells were treated with 250 nM of compounds BSJ-05-017 or BSJ-03-096 (singlicate) or DMSO control (biological triplicate) for 5 hours. Cells were harvested by centrifugation and prepared for mass spectrometry as described previously (28). Data were collected as reported (28). LC-MS data were analyzed using Proteome Discoverer 2.4 (Thermo Fisher Scientific), as previously described (28). Reporter ion intensities were normalized and scaled using in-house scripts in the R framework (63). Statistical analysis was carried out using the limma package within the R framework (64).

phosphorylation of Rb = assay: Immunoblotting of Rb phosphorylation in cells; format: cell-based, human; settings: FAT1 loss / CDK6-high CDK4/6i-resistant MCF7 cells
Method: as §1

[6] = tested on: CDK6-overexpressing xenografts; assay: Efficacy study, cell-derived xenograft; format: in vivo, NSG mice; settings: 25-35 days
Method: (§3) Efficacy study. NOD.Cg-Prkdc Il2rg<tm1Wjl>/SzJ (NSG) mice were obtained from the Jackson Laboratory (Stock #: 005557). Each mouse was injected with MCF7 parental, CDK6-ovexpressing or PTEN loss cells subcutaneously 1 week after the implantation of estradiol pellets (25 mg). […] Tumor volumes were recorded every 3-4 days. Mice were sacrificed if tumors reached 1000 mm^3 or at the end of the experiment. Tumors were collected and processed as described above.

[7] = tested on: MCF7 parental cell-derived xenografts; assay: Efficacy study, cell-derived xenograft; format: in vivo, NSG mice; settings: ribociclib 25 mg/kg p.o., BSJ-05-017 50 mg/kg i.p., BSJ-03-096 50 mg/kg p.o., 25-35 days
Method: as §3

[8] = tested on: shPTEN (PTEN loss) xenografts; assay: Efficacy study, cell-derived xenograft; format: in vivo, NSG mice; settings: 25-35 days
Method: as §3

[9] = FAT1 loss / CDK6-high CDK4/6i-resistant MCF7 cells, 24 h treatment
[10] = MCF7 cells with overexpression of CDK6
[11] = BSJ-05-017 50 mg/kg i.p., BSJ-03-096 50 mg/kg p.o.

T2 sequence (P11802 whole entry): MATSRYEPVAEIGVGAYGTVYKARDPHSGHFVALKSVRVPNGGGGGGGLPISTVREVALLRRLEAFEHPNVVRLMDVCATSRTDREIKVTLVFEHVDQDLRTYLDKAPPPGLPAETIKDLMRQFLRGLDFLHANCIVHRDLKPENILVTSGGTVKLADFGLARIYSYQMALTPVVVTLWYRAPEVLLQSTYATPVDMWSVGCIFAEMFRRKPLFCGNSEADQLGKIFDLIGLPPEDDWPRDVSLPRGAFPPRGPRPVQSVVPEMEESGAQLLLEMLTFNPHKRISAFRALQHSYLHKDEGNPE
T2 sequence (P24385 whole entry partner): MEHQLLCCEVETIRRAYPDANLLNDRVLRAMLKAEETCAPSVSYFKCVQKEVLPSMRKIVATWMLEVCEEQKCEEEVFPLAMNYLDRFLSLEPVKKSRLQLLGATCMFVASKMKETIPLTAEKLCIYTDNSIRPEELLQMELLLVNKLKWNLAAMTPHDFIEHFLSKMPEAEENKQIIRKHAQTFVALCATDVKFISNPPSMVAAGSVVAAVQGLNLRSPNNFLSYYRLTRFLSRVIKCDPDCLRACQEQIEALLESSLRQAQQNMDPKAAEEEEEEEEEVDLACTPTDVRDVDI

- CDK6 activity reduced compared to untreated (CDK6 [1]): 48%
SMILES: CCN1CCN(Cc2ccc(Nc3ncc(F)c(-c4cc(F)c5nc(C)n(C(C)C)c5c4)n3)nc2)CC1 [abemaciclib]

SMILES: NC1(c2ccc(-c3nc4ccn5c(=O)[nH]nc5c4cc3-c3ccccc3)cc2)CCC1 [MK-2206]
- CDK6 expression [2]: suppressed the expression of CDK6

SMILES: CC(=O)c1c(C)c2cnc(Nc3ccc(N4CCN(CCOCCOCCOCCNC(=O)COc5cccc6c5C(=O)N(C5CCC(=O)NC5=O)C6=O)CC4)cn3)nc2n(C2CCCC2)c1=O (centres unmarked) [BSJ-03-123, N-(2-(2-(2-(2-(4-(6-((6-acetyl-8-cyclopentyl-5-methyl-7-oxo-7,8-dihydropyrido[2,3-d]pyrimidin-2-yl)amino)pyridin-3-yl)piperazin-1-yl)ethoxy)ethoxy)ethoxy)ethyl)-2-((2-(2,6-dioxopiperidin-3-yl)-1,3-dioxoisoindolin-4-yl)oxy)acetamide, reference compound]
- degradation of CDK6 (CDK6 [3]; [9]): dose dependent targeting of CDK6; also recorded: effective CDK6 degradation; also recorded: dose-dependent degradation of CDK6
- degradation of CDK4 (CDK4; [9]): not CDK4; also recorded: no effect on CDK4
- inhibition of cell growth (MCF-7 parental cells): does not effectively inhibit the growth
- inhibition of cell growth [4]: does not effectively inhibit the growth

- Cmax (Pharmacokinetic study; male, C57BL/6, mouse, plasma, po, single dose 10 mg/kg p.o.): 900 nM
- concentration at 24 h (Pharmacokinetic study; male, C57BL/6, mouse, plasma, po, single dose 10 mg/kg p.o., read-out: plasma concentration at 24h post dosing): ~100 nM
- metabolic stability (Pharmacokinetic study; single dose in mice, i.p. or p.o.): good metabolic stability
- degradation of CDK6 (CDK6 [3]; [10]): effectively degrade CDK4 and CDK6
- degradation of CDK4 (CDK4; [10]): effectively degrade CDK4 and CDK6
SMILES: CC(=O)c1c(C)c2cnc(Nc3ccc(N4CCN(CC5CCN(c6ccc7c(c6)C(=O)N(C6CCC(=O)NC6=O)C7=O)CC5)CC4)cn3)nc2n(C2CCCC2)c1=O (centres unmarked) [BSJ-03-096, 5-(4-((4-(6-((6-acetyl-8-cyclopentyl-5-methyl-7-oxo-7,8-dihydropyrido[2,3-d]pyrimidin-2-yl)amino)pyridin-3-yl)piperazin-1-yl)methyl)piperidin-1-yl)-2-(2,6-dioxopiperidin-3-yl)isoindoline-1,3-dione]
- degradation of CDK6 (CDK6 [3]; [9]): most significant degradation of both CDK4 and CDK6; also recorded: effective in degrading both CDK4 and CDK6; also recorded: high potency in degrading CDK4 and CDK6
- inhibition of tumor growth [5]: effective in inhibiting tumor growth
- selectivity in global proteomics (MOLT4 cells): highly selective for CDK4 and CDK6
- degradation of CDK4 (CDK4; [9]): most significant degradation of both CDK4 and CDK6; also recorded: effective in degrading both CDK4 and CDK6; also recorded: high potency in degrading CDK4 and CDK6
- inhibition of phosphorylation of Rb (and downstream E2F1/cyclin A2) (phosphorylation of Rb): efficiently inhibit the phosphorylation of Rb protein; also recorded: effective inhibition of the phosphorylation of Rb
- durable tumor inhibition (percent) [6, 11]: −68.9%
- tumor response [7]: sensitive
- durable tumor inhibition (percent) [8, 11]: −54.9%

SMILES: CN(C)C(=O)c1cc2cnc(Nc3ccc(N4CCNCC4)cn3)nc2n1C1CCCC1 [ribociclib, reference compound]
- inhibition of tumor growth [5]: does not inhibit their growth effectively
- tumor response ([6]; ribociclib 25 mg/kg p.o.): tumor outgrowth after initial response
- tumor response [7]: sensitive
- tumor response ([8]; ribociclib 25 mg/kg p.o.): tumor outgrowth after initial response
